Consider two substances from patent US20250009783A1, “SULFONATED HYALURONIC ACID COMPOUND, PREPARATION METHOD THEREFOR AND APPLICATION THEREOF” (UNIVERSITY OF MACAU, priority 2021, published 2025).

The test system of this assay is CAGA-TGF-β activity reporter cells. The assay can be described thus: Test using TGF-β activity reporter cell (luciferase test). The conditions noted are these: added alone: TGF-β 50 ng/ml, pro-TGF-β1 200 ng/ml, overnight, FIG. 6. In kind it is cell-based. How it is done: Method: CAGA-TGF-β activity reporter cells were plated (12-well plate) until the confluence reached 65%. Samples and reagents were added to different wells, respectively. The grouping and concentration were as follows. Group 1:2 ml of TGF-β (50 ng/ml); Group 2:2 ml of pro-TGF-β1 (200 ng/ml); Group 3:2 ml of LLC (200 ng/ml)+S-HA-9 (20 ug/ml); Group 4:2 ml of LLC (200 ng/ml)+PBS (1×); Group 5:2 ml of LLC (200 ng/ml)+S-HA-PBA-1 (20 ug/ml), the cells were stimulated overnight, the samples were collected, and cell lysate was obtained for luciferase test.

On to “TGF-β: transforming growth factor-β, control group 1 of the reporter cell test (50 ng/ml)”, for which the “production of active TGF-β (reporter control groups)” value is given as “stimulated the production of active TGF-β”.
As to “proTGF-β: pro-TGF-β1, control group 2 of the reporter cell test (200 ng/ml)”, the “production of active TGF-β (reporter control groups)” value is on record as “stimulated the production of a very small amount of active TGF-β”.
